In patent publication US20250051266A1, “Novel GLV-Phenolamide: Biosynthesis and Function in Protecting Plants from Herbivore Attack” (Max-Planck-Gesellschaft zur Förderung der Wissenschaften …, priority 2021, published 2025):
“Also recorded” adds a separate entry of the source. Values belong to the molecule of their own block, whether it stands above or below them.

Tests used:
NaPPO1 = target: T1, NaPPO1 (Nicotiana attenuata, UniProt A0A1J6JLI9); experiment: In vitro enzyme assay, substrate specificity of NaPPO1; format: biochemical
T1 sequence (A0A1J6JLI9 1-596): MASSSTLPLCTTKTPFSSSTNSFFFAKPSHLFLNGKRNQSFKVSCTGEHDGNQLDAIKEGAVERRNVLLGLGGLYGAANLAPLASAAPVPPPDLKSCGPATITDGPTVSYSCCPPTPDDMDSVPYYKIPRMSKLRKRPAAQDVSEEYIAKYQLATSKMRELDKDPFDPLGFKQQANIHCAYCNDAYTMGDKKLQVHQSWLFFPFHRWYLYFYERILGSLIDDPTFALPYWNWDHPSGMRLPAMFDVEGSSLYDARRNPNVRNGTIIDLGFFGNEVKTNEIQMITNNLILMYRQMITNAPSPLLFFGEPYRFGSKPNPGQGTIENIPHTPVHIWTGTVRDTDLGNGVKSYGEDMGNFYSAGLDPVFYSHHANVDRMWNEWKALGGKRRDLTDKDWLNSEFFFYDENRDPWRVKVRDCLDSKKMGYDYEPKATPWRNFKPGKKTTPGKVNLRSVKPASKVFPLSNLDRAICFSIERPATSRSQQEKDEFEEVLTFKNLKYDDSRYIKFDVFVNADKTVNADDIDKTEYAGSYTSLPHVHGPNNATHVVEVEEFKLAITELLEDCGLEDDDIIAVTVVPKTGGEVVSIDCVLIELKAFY
Description: (§1) Extracted ion chromatograms (EIC) for doubly charged CP dimer (m/z 250.13) and m/z 347.19 in E. coli expressing NaPPO1 and NaPPO2 with CP and Z3H or (E)-2-hexenal. Compounds 1, 2, 3, 4 denote isomers of CP dimer; compounds 5, 6 denote isomers of m/z 347.19.
(§2) FIG. 53 Substrate specificity of NaPPO1 and NaPPO2 enzymes. Overlay of total ion chromatograms (TIC) of enzyme assays for authentic chlorogenic acid (CGA std), N-coumaroylputrescine (CoP std), (Z)-3-hexenal or (E)-2-hexenal with purified NaPPO1/NaPPO2 from E. coli. Compounds 1 and 2 denote CGA and CoP; 3 and 4 denote contamination peaks from (Z)-3-hexenal and CoP standards, respectively.
(§3) To test this hypothesis, purified NaPPO1, NaPPO2 and NaBBL2 proteins with N-terminal hexahistidine tags after expression in Escherichia coli were isolated (FIGS. 44-45). Incubation of either NaPPO1 or NaPPO2 (NaPPO1/2) with CP and (Z)-3-hexenal yielded a m/z 347.19 peak with identical MS/MS spectrum and retention time as the m/z 347.19 induced in N. attenuata leaves (FIG. 46). Additionally, by-products of doubly charged CP dimers at m/z 250.13 ([M+2H]2+, C26H36N4O62+) which are not detected in oral secretion-induced leaves of N. attenuata WT (Data 2) were also produced in vitro (FIG. 16 and FIG. 47). These doubly charged CP dimers were only produced when the quantities of the (Z)-3-hexenal substrate were lower than those of the CP substrate in vitro. […]
(§4) In vitro assays of NaPPO1, NaPPO2, and NaBBL2: NaPPO1, NaPPO2, and NaBBL2 enzyme activity assays were performed by incubating 100 μg of the purified recombinant protein in 84 mM acetate buffer (pH 4.8) containing 20 mM (E)-N-caffeoylputrescine (BOC Sciences, catalogue #: B0005-053482) and 1 M cis-3-hexenal (Sigma, catalogue #: W256102-SAMPLE-K) or trans-2-hexenal (Sigma, catalogue #: W256005-1KG-K). During incubation of the enzyme reactions at 8° C., 1 μL of the reactions buffer was directly injected and analyzed by LC-MS every h to detect products. […]

NaPPO2 = NaPPO2 (Nicotiana attenuata, UniProt A0A1J6IKE9); experiment: In vitro enzyme assay, substrate specificity of NaPPO2; format: biochemical
Chain of NaPPO2 (A0A1J6IKE9 entry or part of it): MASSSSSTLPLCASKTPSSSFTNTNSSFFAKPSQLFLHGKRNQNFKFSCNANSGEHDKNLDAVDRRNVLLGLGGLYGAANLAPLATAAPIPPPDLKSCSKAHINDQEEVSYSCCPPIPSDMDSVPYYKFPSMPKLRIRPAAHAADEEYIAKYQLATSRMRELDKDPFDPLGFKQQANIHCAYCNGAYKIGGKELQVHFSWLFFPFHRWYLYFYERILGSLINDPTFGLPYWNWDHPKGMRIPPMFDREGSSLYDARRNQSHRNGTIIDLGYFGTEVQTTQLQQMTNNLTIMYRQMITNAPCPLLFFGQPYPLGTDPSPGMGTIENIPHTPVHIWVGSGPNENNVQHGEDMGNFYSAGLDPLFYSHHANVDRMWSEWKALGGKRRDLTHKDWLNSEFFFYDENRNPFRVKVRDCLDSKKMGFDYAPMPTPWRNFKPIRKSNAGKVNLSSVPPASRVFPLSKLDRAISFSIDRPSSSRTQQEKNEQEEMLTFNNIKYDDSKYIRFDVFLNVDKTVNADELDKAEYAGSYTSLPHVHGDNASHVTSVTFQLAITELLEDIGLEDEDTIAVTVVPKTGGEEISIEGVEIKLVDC
Description: as §1, §2, §3, §4

Empoasca decipiens = experiment: In vitro Empoasca non-choice (direct feeding) assay on artificial diet; format: in vivo; details: for changes in mortality rates of E. decipiens compared to glucose controls: physiologically relevant concentrations (CoP 7 μM, CP 100 μM, FP 10 μM) in 10% glucose solution
Method: FIG. 18 Mortality rates of in vitro Empoasca non-choice assays (n=4, 25 Empoasca leafhoppers per replicate) in which Empoasca were fed for 6 h with either 1 μM m/z 347.19 synthesized by using NaPPO1/NaPPO2 and CP and Z3H and diluted in 10% glucose solution or with 10% glucose as control (top). Empoasca in planta choice assays (n=8) conducted with VIGS plants of EV, PPO1, PPO2 and AT1 (bottom).
To test if CPH is responsible for Empoasca resistance, E. decipiens were fed with physiologically relevant concentrations of 1 μM (estimated from field-collected elicited leaves) of NMR-confirmed CPH in diets containing 10% glucose in vitro. […] NaAT1 expression was silenced in N. attenuata plants using VIGS, which disrupted the production of both CP and the CPH (Li et al., Proc Natl Acad Sci USA 112, E4147-4155 (2015)) (FIG. 13).
Empoasca feeding assays: The survival rate of Empoasca feeding on artificial diet (10% 5 sucrose in water) supplemented with caffeoylputrescine (CP, 100 μM), coumaroylputrescine (CoP, 7 μM), feruloylputrescine (FP, 10 μM), or the m/z 347.19 hexenyl derivative of CP (CPH, 1 μM) was recorded every 1 h overnight. The artificial feeding devices consisted of a 50-mL Falcon tube with a 7-mm hole drilled into the conical bottom through which the leafhoppers were aspi-rated into the tube and which then was covered with Parafilm punctured with needles to create ventilation holes. The large opening of the Falcon tube was covered with a double layer of Parafilm containing the liquid diet (100 μL). The artificial feeding devices were placed upside down with the liquid diet side down on a White Light Box (STRATAGENE) to provide bottom-light illu-mination.

Empoasca leafhoppers = experiment: In vivo Empoasca choice assay, compounds infiltrated into irMYC2 leaves; set-up: species or system Empoasca decipiens; details: synthetic CoP 7 μM, CP 100 μM, FP 10 μM in 0.1% DMSO infiltrated into irMYC2 leaves
Method: The spermi-dine-derived metabolites could be excluded as mediators of Empoasca nonhost resistance based on the lack of responses of leafhoppers to the irDH29 and irCV86 lines (FIG. 5). To further explore the involvement of CoP, CP and FP, in vivo Empoasca choice assays were conducted by individually infiltrating physiologically relevant concentrations of synthetic CoP (7 μM), CP (100 μM) and FP (10 μM) into leaves of irMYC2 plants which were devoid of elicited phenolamides (FIG. 9 and FIG. 34).
Two replicates of the 650 RILs from a 26-parent MAGIC population and their 26 parental 5 lines were planted at the WCCER field station, Prescott, Arizona, USA. To elicit a standardized herbivory response, leaves of all RILs, which were in the early-flowering stage were wounded and immediately treated with diluted Manduca sexta oral secretions (W+OS) or left untreated (control) and harvested on dry ice at 1 h and 72h. One week after metabolite sampling, all plants of the field population were screened for natural Empoasca leafhopper numbers and damage; these leafhoppers had opportunistically sampled the N. attenuata plants from neighboring native cu-cumber hostplants. The mQTL and eQTL mapping between SNPs and the relative abundance of each compound or transcript using a set of 646 RILs of the MAGIC population was done with the R package software GAPIT using General linear models (GLM). The multi-omics co-association network was built from correlations among metabolomes, transcriptomes, phytohormones and SNPs. […] Metabolome diversity and specialization and metabolic specificity was calculated using information theory by consider-ing the Shannon entropy of the idMS/MS frequency distributions. […] OS-induced volatile emissions were collected using polydimethylsiloxane (PDMS) tubing from 650 MAGIC RILs planted in the main MPI-CE glasshouse and analyzed bythermal desorption-gas chromatography-mass spectrometry (TD-GC-MS). […]

[1] = Estimation of half-life of m/z 347.19 by NMR time acquisitions; format: physicochemical; details: acidified methanol-d3 (0.1% formic acid), room temperature, darkness
Description: FIG. 55 Estimation of half-life of m/z 347.19. Different time acquisitions of NMR spectra for purified m/z 347.19 are shown.
(§5) To elucidate the chemical structure of m/z 347.19, it was attempted to isolate and purify the m/z 347.19 using induced N. attenuata leaf material and enzyme assay-derived products. However, several attempts failed due to the instability of m/z 347.19. […] These observations indicate that m/z 347.19 is reactive and unstable at high pH. The purification procedures for m/z 347.19 were modified to produce large quantities from enzymatic assays under weak acidic conditions and purified m/z 347.19 using solid phase extraction under argon atmospheres. The purified m/z 347.19 was then subjected to NMR analysis, which elucidated its structural identity as a CP-5-(Z)-3-hexenal compound (hereafter named CPH) (FIG. 54). […] CPH contains both a reactive moiety of a, 3-unsaturated aldehyde derived from (Z)-3-hexenal, which is electrophilic, and an amine feature of the caffeoylputrescine, which is nucleophilic.

[2] = Stability of m/z 347.19 during sample extraction and purification; format: physicochemical
Description: as §5

Compound: CCC/C=C/C=O [(E)-2-hexenal]
enzyme activity (m/z 347.19 production) (NaPPO1; NaPPO1 incubated with CP and (E)-2-hexenal): little-to-no activity
enzyme activity (m/z 347.19 production) (NaPPO2; NaPPO2 incubated with CP and (E)-2-hexenal): little-to-no activity

Compound: O=C(/C=C/c1ccc(O)c(O)c1)O[C@@H]1C[C@](O)(C(=O)O)C[C@@H](O)[C@H]1O [CGA, chlorogenic acid]
acceptance as substrate (new products) (NaPPO1; incubated with NaPPO1 and (Z)-3-hexenal): not accepted as substrates
acceptance as substrate (new products) (NaPPO2; incubated with NaPPO2 and (Z)-3-hexenal): not accepted as substrates

Compound: NCCCCNC(=O)/C=C/c1ccc(O)c(O)c1 [CP, N-caffeoylputrescine]
changes in mortality rates of E. decipiens compared to glucose controls (Empoasca decipiens): no significant changes in mortality rates; also recorded: not affecting leafhopper behavior or performance
preference of Empoasca for irMYC2 plants (Empoasca leafhoppers): did not alter the preference; also recorded: not affecting leafhopper behavior or performance

half-life [1]: ~22 h
Stability ([2]; Leaf sample collection using Eppendorf tubes without direct contact with liquid N2): Yes
Stability ([2]; Leaf sample collection using aluminium foil in liquid N2): No
Stability ([2]; Purifying using SPE column with argon flow): Yes
Stability ([2]; Purifying using freeze drying): No
Stability ([2]; Purifying using rotary evaporator): No
Stability ([2]; Sample extraction buffer pH 4.8): Yes
Stability ([2]; Sample extraction buffer pH 10): No
stability in buffer ([2]; ammonium-acetate buffer (pH 4.8)): relatively stable
stability when concentrated ([2]; concentrated by rotatory evaporation or freeze drying): rapidly decomposed
stability at high pH ([2]; high pH): unstable
Compound: CCC(/C=C/C=O)c1cc(O)c(O)cc1/C=C/C(=O)NCCCCN (centres unmarked) [CPH, CP-5-(Z)-3-hexenal]
mortality at 1 µM (Empoasca decipiens; Empoasca decipiens, feed or water, 1 μM in diet containing 10% glucose, after 6 h of feeding, vs control diet, read-out: mortality of E. decipiens): ~100%

Compound: COc1cc(/C=C/C(=O)NCCCCN)ccc1O [FP, N-feruloylputrescine]
changes in mortality rates of E. decipiens compared to glucose controls (Empoasca decipiens): no significant changes in mortality rates; also recorded: not affecting leafhopper behavior or performance
preference of Empoasca for irMYC2 plants (Empoasca leafhoppers): did not alter the preference; also recorded: not affecting leafhopper behavior or performance
